Data set [1] deals with T1, Bromodomain-containing protein 2 (Homo sapiens, UniProt P25440). Particulars: dose 200.0 µM, time 30.0 min.
Target sequence in this assay (P25440 whole entry, looked up, the tested form may be a part): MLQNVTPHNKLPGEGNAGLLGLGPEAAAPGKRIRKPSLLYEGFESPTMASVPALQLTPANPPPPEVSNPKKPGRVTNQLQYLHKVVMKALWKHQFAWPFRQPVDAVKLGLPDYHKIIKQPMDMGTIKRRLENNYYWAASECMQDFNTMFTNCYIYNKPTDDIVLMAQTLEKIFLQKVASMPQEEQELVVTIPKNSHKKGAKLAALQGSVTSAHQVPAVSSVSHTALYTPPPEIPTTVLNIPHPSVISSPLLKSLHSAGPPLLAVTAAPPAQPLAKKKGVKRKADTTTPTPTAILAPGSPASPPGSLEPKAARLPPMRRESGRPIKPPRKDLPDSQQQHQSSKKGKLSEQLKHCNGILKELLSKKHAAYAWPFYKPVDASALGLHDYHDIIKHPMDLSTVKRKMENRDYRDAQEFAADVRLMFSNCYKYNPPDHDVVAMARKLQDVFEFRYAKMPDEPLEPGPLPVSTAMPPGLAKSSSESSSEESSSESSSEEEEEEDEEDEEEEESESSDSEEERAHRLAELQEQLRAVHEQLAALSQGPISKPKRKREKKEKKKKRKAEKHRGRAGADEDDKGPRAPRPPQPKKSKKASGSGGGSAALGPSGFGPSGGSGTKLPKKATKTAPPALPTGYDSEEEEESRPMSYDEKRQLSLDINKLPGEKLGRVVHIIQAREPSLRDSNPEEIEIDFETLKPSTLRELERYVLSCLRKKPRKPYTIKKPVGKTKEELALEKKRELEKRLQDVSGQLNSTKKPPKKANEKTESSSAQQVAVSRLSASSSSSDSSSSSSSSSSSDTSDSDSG
The target in data set [2] is T2, Bromodomain-containing protein 4 (Homo sapiens, UniProt O60885). Briefly: Binding affinity to His6-tagged human BRD4 bromodomain-1 (44 to 168 residues) expressed in Escherichia coli BL21 (DE3) assessed as dissociation constant by ITC analysis. On the technique in general: In ITC the heat of successive injections is recorded.
The subject of the next data set is CWR22R. Kind of data set: Antiproliferative activity against human 22Rv1 cells assessed as cell growth inhibition by Celltiter-Glo assay. Type of data set: functional, cell-based.
Data set [3] addresses T3, Bromodomain testis-specific protein (Homo sapiens, UniProt Q58F21). Kind of data set: Binding affinity to His6-tagged human BRDT bromodomain-1 (21 to 137 residues) expressed in Escherichia coli BL21 (DE3) assessed as dissociation constant by ITC analysis.
Data set [4] deals with SWI/SNF-related matrix-associated actin-dependent regulator of chromatin subfamily A member 2 (Homo sapiens) (UniProt P51531). To be noted: dose 200.0 µM, time 30.0 min.
Sequence of SWI/SNF-related matrix-associated actin-dependent regulator of chromatin subfamily A member 2 (Homo sapiens) (P51531 whole entry): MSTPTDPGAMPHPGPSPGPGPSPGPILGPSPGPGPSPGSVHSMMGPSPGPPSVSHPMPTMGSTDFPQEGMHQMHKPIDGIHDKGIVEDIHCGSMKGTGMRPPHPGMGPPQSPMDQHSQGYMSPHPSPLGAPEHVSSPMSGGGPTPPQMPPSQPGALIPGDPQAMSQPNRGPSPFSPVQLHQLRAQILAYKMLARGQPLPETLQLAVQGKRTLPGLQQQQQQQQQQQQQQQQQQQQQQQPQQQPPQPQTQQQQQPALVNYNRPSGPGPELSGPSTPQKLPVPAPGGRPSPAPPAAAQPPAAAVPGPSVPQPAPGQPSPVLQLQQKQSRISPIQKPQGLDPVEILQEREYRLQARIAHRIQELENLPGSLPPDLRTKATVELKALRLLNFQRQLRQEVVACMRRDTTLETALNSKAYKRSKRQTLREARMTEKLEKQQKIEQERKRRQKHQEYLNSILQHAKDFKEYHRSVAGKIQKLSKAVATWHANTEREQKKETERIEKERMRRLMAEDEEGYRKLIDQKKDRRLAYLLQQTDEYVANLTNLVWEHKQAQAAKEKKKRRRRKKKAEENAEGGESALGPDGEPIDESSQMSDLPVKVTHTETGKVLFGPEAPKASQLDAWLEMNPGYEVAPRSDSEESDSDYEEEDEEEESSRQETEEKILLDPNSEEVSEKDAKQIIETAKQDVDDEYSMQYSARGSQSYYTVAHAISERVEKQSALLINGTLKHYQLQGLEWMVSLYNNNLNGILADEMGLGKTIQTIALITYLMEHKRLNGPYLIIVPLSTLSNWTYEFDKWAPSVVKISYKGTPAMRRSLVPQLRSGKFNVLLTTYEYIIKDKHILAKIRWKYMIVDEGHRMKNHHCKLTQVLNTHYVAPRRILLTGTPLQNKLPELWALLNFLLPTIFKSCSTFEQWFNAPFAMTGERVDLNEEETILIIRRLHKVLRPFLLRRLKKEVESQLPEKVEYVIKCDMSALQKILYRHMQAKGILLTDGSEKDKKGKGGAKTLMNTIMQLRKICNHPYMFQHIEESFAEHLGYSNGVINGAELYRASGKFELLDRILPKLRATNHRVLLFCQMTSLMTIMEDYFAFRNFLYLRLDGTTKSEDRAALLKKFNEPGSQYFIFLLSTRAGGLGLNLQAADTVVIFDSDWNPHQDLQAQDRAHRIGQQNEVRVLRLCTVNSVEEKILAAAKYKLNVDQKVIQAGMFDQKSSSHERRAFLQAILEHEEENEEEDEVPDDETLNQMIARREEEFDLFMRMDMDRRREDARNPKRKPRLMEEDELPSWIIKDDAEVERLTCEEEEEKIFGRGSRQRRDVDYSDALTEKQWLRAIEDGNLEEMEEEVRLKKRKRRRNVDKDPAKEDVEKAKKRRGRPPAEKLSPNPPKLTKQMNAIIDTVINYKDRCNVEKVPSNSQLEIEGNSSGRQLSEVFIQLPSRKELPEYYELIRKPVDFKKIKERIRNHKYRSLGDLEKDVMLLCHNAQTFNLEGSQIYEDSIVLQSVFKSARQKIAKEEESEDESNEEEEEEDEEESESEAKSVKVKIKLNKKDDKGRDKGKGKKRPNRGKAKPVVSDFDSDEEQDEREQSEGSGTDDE
Data set [5] addresses T1, Bromodomain-containing protein 2. To be noted: dose 200.0 µM, time 30.0 min. This is another data set of the same source.
Target sequence in this assay (P25440 whole entry, looked up, the tested form may be a part): as the sequence (P25440 whole entry, looked up, the tested form may be a part) above
Data set [6] shares this target. Briefly: Binding affinity to His6-tagged human BRD2 bromodomain-1 (77 to 194 residues) expressed in Escherichia coli BL21 (DE3) assessed as dissociation constant by ITC analysis.
For data set [7], the target named is T4, Bromodomain-containing protein 3 (Homo sapiens, UniProt Q15059). Particulars: dose 200.0 µM, time 30.0 min.
T4 sequence (Q15059 2-726 limits assumed): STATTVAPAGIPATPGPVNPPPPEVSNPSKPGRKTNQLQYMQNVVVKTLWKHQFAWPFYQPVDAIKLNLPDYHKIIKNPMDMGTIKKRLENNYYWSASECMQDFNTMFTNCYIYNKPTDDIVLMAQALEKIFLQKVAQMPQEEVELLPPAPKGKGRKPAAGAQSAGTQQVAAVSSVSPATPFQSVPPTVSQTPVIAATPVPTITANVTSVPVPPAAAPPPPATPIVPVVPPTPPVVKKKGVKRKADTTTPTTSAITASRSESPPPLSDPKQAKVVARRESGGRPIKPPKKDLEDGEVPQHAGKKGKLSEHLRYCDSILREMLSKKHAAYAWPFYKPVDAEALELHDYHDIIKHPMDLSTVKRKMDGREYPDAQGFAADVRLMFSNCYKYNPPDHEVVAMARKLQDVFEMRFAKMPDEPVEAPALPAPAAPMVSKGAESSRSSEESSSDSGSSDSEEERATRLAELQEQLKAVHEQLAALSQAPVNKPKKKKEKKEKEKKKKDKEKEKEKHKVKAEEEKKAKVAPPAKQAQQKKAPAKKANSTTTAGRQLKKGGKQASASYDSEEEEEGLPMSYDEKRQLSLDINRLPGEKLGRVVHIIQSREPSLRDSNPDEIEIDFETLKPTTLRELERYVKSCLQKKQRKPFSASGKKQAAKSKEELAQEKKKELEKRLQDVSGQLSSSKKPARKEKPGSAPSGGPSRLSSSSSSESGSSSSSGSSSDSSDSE
The target in data set [8] is T4, Bromodomain-containing protein 3. To be noted: dose 200.0 µM, time 30.0 min. The source holds these as a separate data set.
Data set [9] has as its target PH-interacting protein (Homo sapiens) (UniProt Q8WWQ0). To be noted: dose 200.0 µM, time 30.0 min.
Data set [10] concerns the target T5, Bromodomain-containing protein 9 (Homo sapiens, UniProt Q9H8M2).
T5 sequence (Q9H8M2 whole entry): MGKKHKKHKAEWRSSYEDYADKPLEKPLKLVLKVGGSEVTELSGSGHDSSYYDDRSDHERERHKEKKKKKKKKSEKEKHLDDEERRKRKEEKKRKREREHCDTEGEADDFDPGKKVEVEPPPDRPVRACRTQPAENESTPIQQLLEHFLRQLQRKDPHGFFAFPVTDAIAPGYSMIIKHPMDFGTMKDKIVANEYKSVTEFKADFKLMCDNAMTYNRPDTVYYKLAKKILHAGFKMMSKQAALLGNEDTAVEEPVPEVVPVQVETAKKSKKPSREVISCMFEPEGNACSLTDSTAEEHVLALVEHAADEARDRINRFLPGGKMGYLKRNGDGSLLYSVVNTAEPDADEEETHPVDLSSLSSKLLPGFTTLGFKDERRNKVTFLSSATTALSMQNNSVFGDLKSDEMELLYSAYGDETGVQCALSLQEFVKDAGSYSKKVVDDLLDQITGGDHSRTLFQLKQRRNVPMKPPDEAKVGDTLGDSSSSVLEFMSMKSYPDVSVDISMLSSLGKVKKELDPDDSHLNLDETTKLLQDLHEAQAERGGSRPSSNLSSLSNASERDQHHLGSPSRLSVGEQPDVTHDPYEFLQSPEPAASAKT
Kind of data set: Binding affinity to His6-tagged human BRD9 bromodomain (14 to 134 residues) expressed in Escherichia coli BL21 (DE3) assessed as dissociation constant by ITC analysis.

In the next data set the test system is LNCaP. Kind of data set: Antiproliferative activity against human LNCaP cells assessed as cell growth inhibition by Celltiter-Glo assay. Format: functional, cell-based. (Cellular ATP, detected with luciferase, serves as a proxy for viable cell number.)
Data set [11] addresses Histone acetyltransferase KAT2B (Homo sapiens) (UniProt Q92831). Particulars: dose 200.0 µM, time 30.0 min.
The target of data set [12] is Histone acetyltransferase p300 (Homo sapiens) (UniProt Q09472). Particulars: dose 200.0 µM, time 30.0 min.
Data set [13] addresses T2, Bromodomain-containing protein 4. Particulars: dose 200.0 µM, time 30.0 min.
For data set [14], the target named is T3, Bromodomain testis-specific protein. To be noted: dose 200.0 µM, time 30.0 min.
Data set [15] concerns the target Chromatin remodeling regulator CECR2 (Homo sapiens) (UniProt Q9BXF3). To be noted: dose 200.0 µM, time 30.0 min.
The target in data set [16] is T2, Bromodomain-containing protein 4. Particulars: dose 200.0 µM, time 30.0 min. The source holds these as a separate data set.
A further data set concerns LNCaP C4-2B. Briefly: Antiproliferative activity against human LNCaP C4-2B cells assessed as inhibition of cell growth by Celltiter-Glo assay. Type of data set: functional, cell-based.
The target in data set [17] is T3, Bromodomain testis-specific protein. To be noted: dose 200.0 µM, time 30.0 min. The source holds these as a separate data set.
The target in a further data set is CREB-binding protein (Homo sapiens, UniProt Q92793). To be noted: dose 200.0 µM, time 30.0 min.
Data set [18] deals with Bromodomain adjacent to zinc finger domain protein 2B (Homo sapiens) (UniProt Q9UIF8). To be noted: dose 200.0 µM, time 30.0 min.
Data set [19] concerns the target T6, Bromodomain-containing protein 9 (Homo sapiens) (UniProt Q9H8M2).
T6 sequence (whole entry): T5 sequence (Q9H8M2 whole entry)
To be noted: dose 200.0 µM, time 30.0 min.

The nature of data set [20]: Metabolic stability in rat liver microsomes assessed as parent compound remaining at 1 uM incubated for 45 mins in presence of NADPH by LC-MS/MS analysis. Format: ADME, Microsome. To be noted: read-out: Stability. For orientation: Liver microsomes are vesicles of endoplasmic reticulum, rich in cytochrome P450 enzymes.
The nature of data set [21]: Intrinsic clearance in rat liver microsomes at 1 uM incubated for 45 mins in presence of NADPH by LC-MS/MS analysis. Format: ADME, Microsome. Particulars: read-out: CLH.
Data set [22] can be described thus: Half life in human liver microsomes at 1 uM incubated for 45 mins in presence of NADPH by LC-MS/MS analysis. Format: ADME, Microsome.
Data set [23] in a line: Intrinsic clearance in human liver microsomes at 1 uM incubated for 45 mins in presence of NADPH by LC-MS/MS analysis. Type of data set: ADME, Microsome. To be noted: read-out: CLH.
The nature of data set [24]: Hepatic clearance in rat liver microsomes at 1 uM incubated for 45 mins in presence of NADPH by LC-MS/MS analysis. Type of data set: ADME, Microsome.
Data set [25] is described as follows: Hepatic extraction ratio in human liver microsomes at 1 uM incubated for 45 mins in presence of NADPH by LC-MS/MS analysis. Format: ADME, Microsome. To be noted: read-out: ERH.
Data set [26] in a line: Half life in rat liver microsomes at 1 uM incubated for 45 mins in presence of NADPH by LC-MS/MS analysis. Format: ADME, Microsome.
The next data set is described as follows: in vitro. Particulars: rat, liver microsomes.
Data set [27] in a line: Metabolic stability in human liver microsomes assessed as parent compound remaining at 1 uM incubated for 45 mins in presence of NADPH by LC-MS/MS analysis. Format: ADME, Microsome. Particulars: read-out: Stability.
Data set [28] can be described thus: Hepatic clearance in human liver microsomes at 1 uM incubated for 45 mins in presence of NADPH by LC-MS/MS analysis. Format: ADME, Microsome. To be noted: read-out: CLH.

Structures are written as SMILES.

Sequence of Chromatin remodeling regulator CECR2 (Homo sapiens) (Q9BXF3 whole entry, looked up): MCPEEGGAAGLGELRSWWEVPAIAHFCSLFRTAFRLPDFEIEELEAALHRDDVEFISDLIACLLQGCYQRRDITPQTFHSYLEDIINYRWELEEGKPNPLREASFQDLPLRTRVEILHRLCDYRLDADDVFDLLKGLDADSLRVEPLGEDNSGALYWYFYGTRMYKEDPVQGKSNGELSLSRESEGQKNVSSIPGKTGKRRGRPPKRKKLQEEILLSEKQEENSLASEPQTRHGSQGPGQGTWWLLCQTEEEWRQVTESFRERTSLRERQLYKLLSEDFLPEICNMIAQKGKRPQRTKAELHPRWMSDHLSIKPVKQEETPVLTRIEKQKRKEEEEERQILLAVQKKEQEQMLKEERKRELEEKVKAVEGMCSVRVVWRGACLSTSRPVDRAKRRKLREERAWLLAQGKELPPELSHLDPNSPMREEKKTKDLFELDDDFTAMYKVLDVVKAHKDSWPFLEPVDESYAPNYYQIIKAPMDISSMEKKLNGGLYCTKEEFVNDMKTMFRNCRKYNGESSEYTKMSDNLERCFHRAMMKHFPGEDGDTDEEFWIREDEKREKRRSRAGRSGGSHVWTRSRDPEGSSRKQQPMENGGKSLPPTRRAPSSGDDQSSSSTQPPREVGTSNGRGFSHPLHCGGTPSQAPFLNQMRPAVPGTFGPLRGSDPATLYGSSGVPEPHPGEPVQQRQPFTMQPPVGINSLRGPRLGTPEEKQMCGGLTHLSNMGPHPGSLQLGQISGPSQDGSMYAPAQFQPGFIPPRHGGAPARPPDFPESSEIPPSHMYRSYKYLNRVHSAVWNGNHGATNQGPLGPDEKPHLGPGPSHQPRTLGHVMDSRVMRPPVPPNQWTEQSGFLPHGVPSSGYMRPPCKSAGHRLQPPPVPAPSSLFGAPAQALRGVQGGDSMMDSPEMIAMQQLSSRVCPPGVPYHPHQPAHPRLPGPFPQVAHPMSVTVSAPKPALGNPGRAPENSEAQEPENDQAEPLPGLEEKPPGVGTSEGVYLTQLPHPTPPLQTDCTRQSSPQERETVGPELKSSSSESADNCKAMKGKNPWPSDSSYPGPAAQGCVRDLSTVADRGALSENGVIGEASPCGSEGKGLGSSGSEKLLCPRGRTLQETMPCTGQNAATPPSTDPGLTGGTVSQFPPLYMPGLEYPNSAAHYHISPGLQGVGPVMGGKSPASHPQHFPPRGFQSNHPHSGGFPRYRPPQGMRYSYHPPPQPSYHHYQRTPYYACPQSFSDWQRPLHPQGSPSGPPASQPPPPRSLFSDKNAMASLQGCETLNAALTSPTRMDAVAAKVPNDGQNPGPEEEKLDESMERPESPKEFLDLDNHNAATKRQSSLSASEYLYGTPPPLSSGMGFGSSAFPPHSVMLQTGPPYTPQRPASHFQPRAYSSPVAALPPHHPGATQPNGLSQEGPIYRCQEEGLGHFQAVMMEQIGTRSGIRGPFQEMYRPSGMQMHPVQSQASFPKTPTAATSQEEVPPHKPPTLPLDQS
Description for in vitro: Hepatic extraction ratio in rat liver microsomes at 1 uM incubated for 45 mins in presence of NADPH by LC-MS/MS analysis

As to `CO[C@H]1CC[C@H](n2c([C@@H]3CCCC(=O)N3c3ccc(F)c(F)c3)nc3cc(-c4c(C)noc4C)ccc32)CC1` [INOBRODIB], the shift in melting temperature (ΔTm) stood at 2.3 °C in data set [1]; 0 °C in [4]; 3.8 °C in data set [5]; 5.5 °C in [7]; 2 °C in data set [8]; 0 °C in [9]. Also, the ΔTm in [11] is -0.5 °C; in data set [12], 17.5 °C; in data set [13], 6.3 °C; in data set [14], 2.5 °C; in data set [15], 0 °C; in data set [16], 1.3 °C. Besides, the ΔTm was 0.5 °C in data set [17], 17.5 °C on CREB-binding protein, -0.5 °C in [18] and 4.3 °C in data set [19]. Also, the Kd in data set [2] was determined as 360 nM; in [3], 1120 nM; in data set [6], 390 nM; in [10], 2610 nM. For the same molecule, the IC50 was 420 nM in the data set with CWR22R, 60 nM in the data set with LNCaP and 1650 nM in the data set with LNCaP C4-2B.
For `Cc1ncc2n1-c1ccc(Cl)cc1C(c1ccccc1F)=NC2` [MIDAZOLAM], the results for the remaining at 0.75 h, 1 µM in data set [20] and in data set [27] were 4.5% and 0.55%, respectively. The figures for the CLint scaled at 1 µM in [21], in [23] and in [28] were 750 mL/min/kg, 452 mL/min/kg and 19.9 mL/min/kg, respectively. In addition, the half-life at 1 µM in data set [22] is 3.07 min; in data set [26], 1.85 min. Further, the CLhep predicted at 1 µM in data set [24] was 53 mL/min/kg. For the same molecule, the values for the hepatic extraction ratio at 0.75 h, 1 µM (in data set [25]; in “in vitro”) were 0.962 and 0.961, respectively.

As a reminder, the ΔTm is the change in melting temperature against a reference sample. As usually defined, the Kd is the constant that tells how readily two partners part at equilibrium. What is called IC50 is the concentration at which inhibition is half-maximal. As usually defined, the half-life is the time needed for the level to fall by half in the phase considered.
